Reference: PubChem BioAssay (NCI)
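All cell lines were grown in 96-well plates and treated with compound for 48 hours. TGI is the concentration that stops growth completely.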

Columns and labels:
Assay in all cases: NCI tumour cell line growth inhibition, 48 h
[1] = test system: A498 renal
[2] = test system: BT-549 breast
[3] = test system: HOP-62 NSCLC
[4] = test system: HT29 colon
[5] = test system: MDA-MB-231 breast
[6] = test system: NCI-H23 lung
[7] = test system: SF-268 CNS
[8] = test system: SK-MEL-5 melanoma
[9] = test system: SNB-19 CNS
[10] = test system: SW-620 colon

Row | SMILES | TGI [1] [µM] | TGI [2] [µM] | TGI [3] [µM] | TGI [4] [µM] | TGI [5] [µM] | TGI [6] [µM] | TGI [7] [µM] | TGI [8] [µM] | TGI [9] [µM] | TGI [10] [µM]
1 | C(=C\N1CCCCC1)/c1nnnn1-c1ccccc1 | > 100 | > 100 | > 100 | > 100 | 61.6 | > 100 | 84 | 58.9 | > 100 | > 100
2 | CN(C)c1cc[n+](-c2nc(/N=C(\[O-])C(F)(F)F)nc3c2ncn3C2CC(O)C(CO)O2)cc1 (stereo not given) | > 100 | > 100 | > 100 | > 100 | > 100 | > 100 | > 100 | > 100 | > 100 | > 100
3 | O=[N+]([O-])c1ccc(O)c(/C=N/NC(=S)N2CCCCC2)c1 | > 44.2 | 63.4 | > 100 | 15 | 52.2 | 32.9 | 24.6 | 21 | > 53.6 | > 59
4 | C=CCOCn1cc(C)c(=O)[nH]c1=O | > 100 | > 100 | > 100 | > 100 | > 100 | > 100 | > 100 | > 100 | > 100 | > 100
5 | CC1CC(=O)N(N(C)C)C(C#N)(C#N)C1(C#N)C#N (stereo not given) | 34.1 | 32.7 | > 60.6 | 38 | 28.9 | 43.8 | > 58.9 | 47 | > 61.8 | 21.1
6 | CCOC(=O)Cc1nc2c(N)ncnc2n1C1OC(COC(C)=O)C(OC(C)=O)C1OC(C)=O (stereo not given) | > 100 | > 100 | > 100 | > 100 | > 100 | > 100 | > 100 | > 100 | > 100 | > 100
7 | CCOC(=O)C1=C(C)N(c2ccc(OC)cc2)C2(O)C=CC(=O)C3=C(O)c4ccccc4C(=O)C312 (stereo not given) | 27 | 29 | 30.1 | 32.7 | 34.8 | 37.4 | 9.82 | 24.6 | 41.1 | 29.8
8 | O=C(CCc1ccccc1)On1c(-c2ccccc2)nc2ccccc2c1=S | > 100 | > 100 | 31.5 | > 100 | > 100 | 28 | > 100 | 47.2 | > 100 | > 100
9 | COc1cc(C2c3cc4c(cc3OC(N3CCNCC3)C2C)OCO4)cc(OC)c1OC (stereo not given) | 52.1 | 30.2 | 27.3 | 7.54 | 2.46 | > 100 | > 44.2 | 4.03 | > 82.3 | 17.3
10 | CC(=N\N)/C(C)=N/N=C(C)/C(C)=N/N=C(C)/C(C)=N/N | > 100 | > 100 | > 100 | > 100 | > 100 | > 100 | > 100 | > 100 | > 100 | > 100
11 | CCOC(=O)Oc1ccc2c(c1)c(=O)c1c(NCCN(CC)CC)ccc3nnn2c31 | 21.5 | 23.1 | 7.22 | 11.7 | 17.6 | 18.1 | 17.1 | 16.1 | 15.9 | 13.2
12 | O=C1C(CN2CCOCC2)CCCC1CN1CCOCC1 (stereo not given) | 42.3 | 3.5 | > 100 | 4.16 | 19.8 | 16.9 | 43.3 | 23.9 | 45.7 | 0.911
13 | CNc1ncc(-c2nnnn2-c2ccccc2)c(CN(C)C)n1 | > 100 | > 100 | > 100 | > 100 | > 100 | > 100 | > 100 | > 100 | > 100 | > 100
14 | COC(=O)c1ccc(Nc2nc3nc[nH]c3c(=O)[nH]2)cc1 | > 100 | > 100 | > 100 | > 100 | > 100 | > 100 | > 100 | > 100 | > 100 | > 100
15 | S=C(Nc1ccc2cn[nH]c2c1)Nc1ccc2cn[nH]c2c1 | > 100 | > 100 | > 100 | > 100 | > 100 | > 100 | > 100 | > 100 | > 100 | > 100
16 | COc1ccccc1C[C@@H]1OC2(C=CC(=O)C=C2)O[C@H]1Cc1ccccc1OC | 49.9 | 11.5 | 15.4 | 16.7 | 38.6 | 18.9 | 16.9 | 16.1 | 24.2 | 5.98
17 | COc1ccc(/C=N/n2cnc3[nH]c(C)c(Cc4ccccc4)c3c2=N)cc1 | > 100 | > 100 | > 100 | > 100 | > 100 | > 100 | > 100 | > 100 | > 100 | > 100
18 | O=C1c2cn[nH]c2C(c2ccccc2)N1c1ccccc1 (stereo not given) | > 10 | > 10 | > 10 | > 10 | > 10 | > 10 | > 10 | > 10 | > 10 | > 10
19 | CC(C)(C)OC(=O)NCCCCC(NC(=O)c1ccccc1)C(N)=O (stereo not given) | > 100 | > 100 | > 100 | > 100 | > 100 | > 100 | > 100 | > 100 | > 100 | > 100
20 | Cc1ccc2c(c1)C(=O)C(C1OC(=O)c3ccccc31)C2 (stereo not given) | > 100 | > 100 | > 100 | > 100 | > 100 | > 100 | > 100 | > 100 | > 100 | > 100
21 | CCOc1cc(NC(C)=O)ccc1C(=O)NN1C(=O)CSC1c1ccccc1 (stereo not given) | > 100 | > 100 | > 100 | > 100 | > 100 | > 100 | > 100 | > 100 | > 100 | > 100
22 | C[Si](C)(c1ccccc1)[C@H]1CCCC=C1CCNC1c2ccccc2CCc2ccccc21 | > 100 | > 100 | > 100 | > 100 | > 100 | > 100 | > 100 | > 100 | > 100 | > 100
23 | O=c1cnn(CCOCP(=O)(O)O)c(=O)[nH]1 | > 100 | > 100 | > 100 | > 100 | > 100 | > 100 | > 100 | > 100 | > 100 | > 100
